These results are taken from patent US20090247599A1, “METHODS OF TREATING CELL PROLIFERATIVE DISORDERS USING A COMPRESSED TEMOZOLOMIDE DOSING SCHEDULE” (Schering Corporation, priority 2005, published 2009).

The structures appear in SMILES notation.

In experiment [1] the test system is LOX human melanoma xenograft tumors. The experiment in a line: LOX xenograft tumor growth in SCID mice. The format is in vivo. The following applies: i.p., 72 mg/kg total dose. As for the experimental part: (§1) In brief, female athymic nude mice or female SCID mice (4-6 week old) from Charles River Laboratories were maintained in a VAF-barrier facility. Animal procedures were performed in accordance with the rules set forth in the N.I.H. guide for the care and use of laboratory animals.
(§2) DAOY human medulloblastoma cells (5×10^6), U373 human glioma cells (5×10^6), LOX human melanoma cells (5×10^5), and A375 human melanoma cells (5×10^6) were inoculated subcutaneously in the right flank of the animal (LOX in SCID mice; DAOY, U373, and A375 in nude mice). To facilitate in vivo growth, Matrigel was mixed with DAOY and A375 cells (50%) before inoculation. When tumor volumes were approximately 100 mm^3, animals were randomized and grouped (n=10 LOX, DAOY, and A375; n=9 U373). Tumor volumes and body weight were measured twice weekly using Labcat™ computer application (Innovative Programming Associates, N.J.). Tumor volumes were calculated by the formula (W×L×H)×π×⅙. TMZ was administered by intraperitoneal injections with 20% HPβCD (containing 1% DMSO) as vehicle.
Mice bearing xenograft tumors of LOX human melanoma cells, a low MGMT level cell line, were treated with TMZ using two different schedules. The same total dose was administered evenly divided over the course of either: (i) 4 or (ii) 12 days. […]

In experiment [2] the test system is U373 human glioma xenograft tumors. The experiment in a line: U373 xenograft tumor growth in nude mice. The following applies: i.p. In kind it is in vivo. As to the method: as §1, §2
Mice bearing xenograft tumors of U373 human glioma cells, a high MGMT level cell line, were treated with TMZ for 5 consecutive days (day 1 through day 5) over a cycle that is at least a 28-day cycle. […]

As to `Cn1nnc2c(C(N)=O)ncn2c1=O` [TMZ, 3,4-dihydro-3-methyl-4-oxoimidazo[5,1-d]-as-tetrazine-8-carboxamide], the TGI stood at 88% in experiment [1] (4-day treatment schedule (Day 1-4)), 50% in experiment [1] (12-day schedule (Day 1-12)), 100% in experiment [2] (35 mg/kg for 5 consecutive days (175 mg/kg total)) and 113% in experiment [2] (70 mg/kg for 5 consecutive days (350 mg/kg total)).
